Results from PubChem BioAssay AID1194 (EPA DSSTox, 2008).
The source made the active and inactive calls.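 How the source made its calls: active means chemicals rated mutagenic or weakly mutagenic in the Salmonella bacterial test by one literature review, or positive overall by another; inconclusive means no clear call, values can overlap the other calls; inactive means the rest.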

Tested on: Salmonella typhimurium Ames mutagenicity, literature compiled
Test: DSSTox (CPDBAS) Carcinogenic Potency Database Salmonella Mutagenicity
Source text: The Carcinogenic Potency Database (CPDB) is a unique and widely used international resource of the results of over 6500 chronic, long-term animal cancer tests on over 1500 chemical substances. The CPDB provides easy access to the bioassay literature, with qualitative and quantitative analyses of both positive and negative experiments that have been published over the past 50 years in the general literature and by the National Cancer Institute/National Toxicology Program. The CPDB standardizes the diverse literature of cancer bioassays that vary widely in protocol, histopathological examination and nomenclature, and in the published author's choices of what information to provide in their papers. Results are reported in the CPDB for tests in rats, mice, hamsters, dogs, and nonhuman primates, and are based on the most positive result among all experiments for each sex-species. The DSSTox CPDBAS (all species) file incorporates data from the CPDB Summary Tables for the full list of over 1500 chemical substances tested in at least one species.
A chemical is classified within the CPDB as mutagenic, i.e. "active", in the Salmonella assay if it was evaluated overall as either "mutagenic" or "weakly mutagenic" by Zeiger [Zeiger, E. (1997) Genotoxicity Database. In: Gold and Zeiger, Eds. Handbook of Carcinogenic Potency and Genotoxicity Databases. Boca Raton, FL: CRC Press, pp. 687-729. http://potency.berkeley.edu/CRCbook.html] or as overall "positive" by the EPA Gene-Tox Program [Kier et al. (1986) Mutat. Res. 168: 69-240].

Row | Structure (SMILES) | outcome
1 | CCc1ccc(C(c2ccc(CC)cc2)C(Cl)Cl)cc1 | active
2 | C=CC=O | active; inactive
3 | O=C(O)C(Cl)(Cl)Cl | inactive
4 | CCO | inactive; active
5 | Nc1ccc(N)c(Cl)c1 | active; inactive
6 | CBr | active
7 | OC[P+](CO)(CO)CO | inactive; active
8 | c1ccncc1 | inactive
9 | c1ccc2n[nH]nc2c1 | active; inactive
10 | CC(C)CN(N=O)C(=N)N[N+](=O)[O-] | active
11 | Cc1cc2c(nc1N)[nH]c1ccccc12 | active; inactive
12 | CN(N=O)c1cccnc1 | inactive; active
13 | CC(O)COC(C)(C)C (stereo not given) | active; inactive
14 | Cc1noc(NS(=O)(=O)c2ccc(N)cc2)c1C | inactive; active
15 | ClCC(Br)CBr (stereo not given) | active; inactive
16 | S=C1NCCN1 | active
17 | O=C1OC(=O)c2ccccc21 | inactive; active
18 | O=c1cc[nH]c(=O)[nH]1 | inactive; active
19 | CC(=O)Nc1nc(NC(C)=O)nc(-c2ccc([N+](=O)[O-])o2)n1 | active; inactive
20 | O=[N+]([O-])c1ccc(-c2nc(N3CCOCC3)c3ccccc3n2)s1 | active
21 | CCCN(N=O)C(N)=O | active
22 | Cc1ccc(NC(N)=O)cc1 | inactive; active
23 | N[C@@H](Cc1ccc(N(CCCl)CCCl)cc1)C(=O)O | active; inactive
24 | O=C1CN(/N=C/c2ccc([N+](=O)[O-])o2)C(=O)N1 | active
25 | O=P1(NCCCl)OCCCN1CCCl (stereo not given) | active; inactive

Row | Structure (SMILES) | outcome
26 | Cc1cccc(C)c1N | active
27 | CN(C)C(=O)Nc1cccc(C(F)(F)F)c1 | inactive
28 | Cc1ccc2cc3c(ccc4ccccc43)c3c2c1CC3 | active
29 | O=NN1CCCC1 | active
30 | NC(=O)c1cnccn1 | inactive; active
31 | O=C1CCCCCN1 | inactive; active
32 | FC(F)OC(Cl)C(F)(F)F (stereo not given) | inactive
33 | O=c1ccc2ccccc2o1 | active; inactive
34 | CC(O)CNCC(C)O (stereo not given) | inactive
35 | [C-]1=CC=CC1.[C-]1=CC=CC1.[Cl-].[Cl-].[Ti+4] | active; inactive
36 | COc1cc2c(c3oc(=O)c4c(c13)CCC4=O)C1C=COC1O2 (stereo not given) | active
37 | CCOc1ccc(NC(N)=O)cc1 | inactive; active
38 | C1CNCCN1 | inactive
39 | CC(CCl)OC(C)CCl (stereo not given) | active
40 | Cc1cc(-c2ccc(N)c(C)c2)ccc1N | active; inactive
41 | O=C(O)C1[O][Sb]2[O]C(=O)C([O]2)C(C(=O)O)[O][Sb]2[O]C(=O)C1[O]2 (stereo not given) | inactive
42 | C=C(C)[C@H]1CC=C(C)CC1 | inactive; active
43 | O=[N+]([O-])c1ccc(Nc2ccc(Nc3ccccc3)c(S(=O)(=O)O)c2)c([N+](=O)[O-])c1 | active; inactive
44 | CCCCN(CCCCO)N=O | active; inactive
45 | O=P(OC(CCl)CCl)(OC(CCl)CCl)OC(CCl)CCl | active
46 | CC1=C2C(=CO[C@@H](C)[C@@H]2C)C(=O)C(C(=O)O)=C1O | inactive; active
47 | CCNC(=S)NCC | inactive
48 | COP(=O)(OC)OC=C(Cl)Cl | active; inactive
49 | CCCOC(=O)c1cc(O)c(O)c(O)c1 | inactive
50 | O=[N+]([O-])c1ccc2c(c1)Cc1ccccc1-2 | active

Row | Structure (SMILES) | outcome
51 | Nc1ccc2cc3ccc(N)cc3nc2c1 | active
52 | ClC(Cl)C(Cl)(Cl)Cl | inactive
53 | [O-][Br+2]([O-])O | active
54 | c1cc(OCC2CO2)cc(OCC2CO2)c1 (stereo not given) | active
55 | C=CC(=O)OCC | inactive
56 | O=NN1CCC(=O)NC1=O | active; inactive
57 | O=NN1CCCCCC1 | active
58 | CCc1ccccc1 | inactive
59 | C=CCN(CC=C)N=O | active
60 | O.O.O.O.O.O.O=S(=O)([O-])[O-].[Ni+2] | inactive; active
61 | CC1=CC(=O)CC(C)(C)C1 | inactive; active
62 | COC(=O)C(c1ccccc1)C1CCCCN1 (stereo not given) | inactive
63 | Nc1nc(N)nc(-c2ccc([N+](=O)[O-])o2)n1 | active
64 | OCCN(CCO)CCO | inactive; active
65 | c1ccc(-c2ccccc2)cc1 | inactive
66 | O=C(O)COc1cc(Cl)c(Cl)cc1Cl | inactive; active
67 | COc1cc2c(c3oc4cccc(O)c4c(=O)c13)C1C=COC1O2 (stereo not given) | active; inactive
68 | CC(=O)NCc1nc(-c2ccc([N+](=O)[O-])o2)no1 | active
69 | CCN(Cc1cccc(S(=O)(=O)O)c1)c1ccc(C(=C2C=CC(=[N+](CC)Cc3cccc(S(=O)(=O)[O-])c3)C=C2)c2ccc(S(=O)(=O)O)cc2)cc1 | inactive; active
70 | CCN(CC)C(=S)S[Te](SC(=S)N(CC)CC)(SC(=S)N(CC)CC)SC(=S)N(CC)CC | inactive
71 | Oc1cccc(O)c1 | inactive
72 | ClC(Cl)=C(Cl)Cl | inactive; active
73 | CC(=O)Oc1ccccc1C(=O)O | inactive
74 | [Cd+2].[Cl-].[Cl-] | inactive; active
75 | O=S1(=O)CCCO1 | active; inactive

Row | Structure (SMILES) | outcome
76 | OB(O)O | inactive
77 | Cc1c(N(C)C)c(=O)n(-c2ccccc2)n1C | active
78 | NCC(=O)O | inactive
79 | Cc1cc(C)c(N=Nc2c(O)c(S(=O)(=O)O)cc3cc(S(=O)(=O)O)ccc23)cc1C | inactive; active
80 | O=CCCCC=O | active
81 | C[C@H]1C(=O)O[C@@H]2CCN3CC=C(COC(=O)[C@](C)(O)[C@]1(C)O)[C@H]23 | inactive; active
82 | Nc1ccc(O)c([N+](=O)[O-])c1 | active
83 | COc1ccccc1[N+](=O)[O-] | active
84 | ClCC(Cl)CCl | active; inactive
85 | O=C/C=C/O | inactive
86 | C/C=C/C=C/C(=O)O | inactive
87 | CN(C)Nc1nc(-c2ccc([N+](=O)[O-])o2)cs1 | active; inactive
88 | CC(=O)Nc1ccc2c(c1)Cc1ccccc1-2 | active
89 | Cc1cc(O)c2c(c1)C(=O)c1cc(O)cc(O)c1C2=O | active
90 | C=CCc1ccc(OC)cc1 | inactive; active
91 | O=S1(=O)CC=CC1 | inactive; active
92 | C=Cc1cccc(C)c1 | inactive; active
93 | ClC(Br)Br | inactive
94 | O=S(=O)(O)c1ccc(N=Nc2cc(S(=O)(=O)O)c3ccccc3c2O)c2ccccc12 | active; inactive
95 | O=NN1CCCCC1 | active
96 | ClC(Cl)=C(Cl)C(Cl)=C(Cl)Cl | inactive; active
97 | COc1ccc(N)c(C)c1 | active; inactive
98 | S=C([S-])NCCNC(=S)[S-].[Zn+2] | inactive; active
99 | O=[N+]([O-])c1ccc(-c2nc(N(CCO)CCO)c3ccccc3n2)s1 | inactive; active
100 | C1N2CN3CN1CN(C2)C3 | active

Row | Structure (SMILES) | outcome
101 | Nc1ccccc1-c1ccccc1 | active
102 | CC/C(=C(/CC)c1ccc(O)cc1)c1ccc(O)cc1 | inactive
103 | Nc1c(Cl)cc(Cl)cc1Cl | inactive; active
104 | Cc1cc(O)c(C)c2c1OC(C)(CCCC(C)CCCC(C)CCCC(C)C)CC2 (stereo not given) | inactive; active
105 | O=[N+]([O-])c1cccc2ccccc12 | active
106 | O=S(=O)(O)c1c(N=Nc2c(O)ccc3ccccc23)ccc2ccccc12 | inactive; active
107 | Nc1ncc([N+](=O)[O-])s1 | active
108 | O=Nc1ccc(NO)cc1 | active; inactive
109 | CCN(Cc1cccc(S(=O)(=O)O)c1)c1ccc(C(=C2C=CC(=[N+](CC)Cc3cccc(S(=O)(=O)O)c3)C=C2)c2ccc(O)cc2S(=O)(=O)[O-])cc1 | inactive; active
110 | c1ccc2[nH]c(-c3cscn3)nc2c1 | active
111 | CC(C)(c1ccc(O)cc1)c1ccc(O)cc1 | inactive
112 | Cc1ccc(N=C=O)cc1N=C=O | active
113 | C/C=C/c1ccc2c(c1)OCO2 | inactive; active
114 | CC(=O)Nc1ccc2c(c1)Cc1cc(NC(C)=O)ccc1-2 | active
115 | Nc1ncn([C@@H]2O[C@H](CO)[C@@H](O)[C@H]2O)c(=O)n1 | active
116 | O=NN(CCCl)C(=O)N[C@@H]1[C@@H](O)[C@H](O)[C@@H](CO)O[C@@H]1O | active; inactive
117 | CN(C)c1ccccc1 | inactive
118 | Cc1ccc(S(=O)(=O)Oc2ccc(N=Nc3ccc(-c4ccc(N=Nc5c(O)ccc6cc(S(=O)(=O)O)cc(S(=O)(=O)O)c56)c(C)c4)cc3C)cc2)cc1 | active
119 | Cc1cc(C)nc(NS(=O)(=O)c2ccc(N)cc2)n1 | inactive
120 | Nc1ccc(Nc2ccccc2)cc1 | inactive; active
121 | Nc1ccc2ccccc2c1 | active; inactive
122 | O=P(O)(O)O | active; inactive
123 | Nc1ccc(-c2ccccc2)cc1 | active
124 | CCNc1nc(Cl)nc(NCC)n1 | inactive
125 | C=Cc1ccccc1 | active; inactive
